Measured values from ChEMBL document CHEMBL6127119 (J Med Chem, 2024).
Values after ≈ are worked out from the molar mass of the structure shown.

Columns and labels:
Type in all cases: functional
Settings in all cases: time 16-24 hrs
[1] = tested on: Staphylococcus aureus; test: Antibacterial activity against methicillin-susceptible Staphylococcus aureus incubated for 16 to 24 hrs by CLSI based broth microdilution method
[2] = tested on: Staphylococcus aureus; test: Antibacterial activity against vancomycin-intermediate Staphylococcus aureus incubated for 16 to 24 hrs by CLSI based broth microdilution method
[3] = tested on: Enterococcus faecium; test: Antibacterial activity against vancomycin-resistant Enterococcus faecium harboring VanA phenotype incubated for 16 to 24 hrs by CLSI based broth microdilution method
[4] = tested on: Enterococcus faecium; test: Antibacterial activity against vancomycin-resistant Enterococcus faecium harboring VanM phenotype incubated for 16 to 24 hrs by CLSI based broth microdilution method
[5] = tested on: Enterococcus faecium; test: Antibacterial activity against vancomycin-resistant Enterococcus faecium harboring VanB phenotype incubated for 16 to 24 hrs by CLSI based broth microdilution method
[6] = tested on: Escherichia coli; test: Antibacterial activity against Escherichia coli AB1157 incubated for 16 to 24 hrs by CLSI based broth microdilution method
[7] = tested on: Acinetobacter baumannii; test: Antibacterial activity against Carbapenem-resistant Acinetobacter baumannii clinical isolate incubated for 16 to 24 hrs by CLSI based broth microdilution method
[8] = tested on: Klebsiella pneumoniae; test: Antibacterial activity against Klebsiella pneumoniae clinical isolate incubated for 16 to 24 hrs by CLSI based broth microdilution method
[9] = tested on: Pseudomonas aeruginosa; test: Antibacterial activity against Pseudomonas aeruginosa PAO1 incubated for 16 to 24 hrs by CLSI based broth microdilution method

| SMILES | MIC [1] [mg/L] | MIC [2] [mg/L] | MIC [3] [mg/L] | MIC [4] [mg/L] | MIC [5] [mg/L] | MIC [6] [mg/L] | MIC [7] [mg/L] | MIC [8] [mg/L] | MIC [9] [mg/L] |
| --- | --- | --- | --- | --- | --- | --- | --- | --- | --- |
| CN[C@H](CC(C)C)C(=O)N[C@H]1C(=O)N[C@@H](CC(N)=O)C(=O)N[C@H]2C(=O)N[C@H]3C(=O)N[C@H](C(=O)N[C@H](C(=O)N[C@H](CCCNC(=N)N)C(N)=O)c4cc(O)cc(O)c4-c4cc3ccc4O)[C@H](O)c3ccc(c(Cl)c3)Oc3cc2cc(c3O[C@@H]2O[C@H](CO)[C@@H](O)[C@H](O)[C@H]2O[C@H]2C[C@](C)(N)[C@H](O)[C@H](C)O2)Oc2ccc(cc2Cl)[C@H]1O | 0.5 (≈ 0.312 µM) | 1 (≈ 0.623 µM) | 8 (≈ 4.99 µM) | 32 (≈ 19.9 µM) | 16 (≈ 9.97 µM) | 8 (≈ 4.99 µM) | 32 (≈ 19.9 µM) | 128 (≈ 79.8 µM) | > 128 |
| CC(C)C[C@@H](N)C(=O)N[C@H]1C(=O)N[C@@H](CC(N)=O)C(=O)N[C@H]2C(=O)N[C@H]3C(=O)N[C@H](C(=O)N[C@H](C(=O)N[C@H](CCCNC(=N)N)C(N)=O)c4cc(O)cc(O)c4-c4cc3ccc4O)[C@H](O)c3ccc(c(Cl)c3)Oc3cc2cc(c3O[C@@H]2O[C@H](CO)[C@@H](O)[C@H](O)[C@H]2O[C@H]2C[C@](C)(N)[C@H](O)[C@H](C)O2)Oc2ccc(cc2Cl)[C@H]1O | 0.5 (≈ 0.314 µM) | 16 (≈ 10.1 µM) | 32 (≈ 20.1 µM) | 64 (≈ 40.2 µM) | 32 (≈ 20.1 µM) | 16 (≈ 10.1 µM) | 64 (≈ 40.2 µM) | > 128 | 128 (≈ 80.5 µM) |
| CC(C)C[C@@H](N)C(=O)N[C@H]1C(=O)N[C@@H](CC(N)=O)C(=O)N[C@H]2C(=O)N[C@H]3C(=O)N[C@H](C(=O)N[C@H](C(=O)NCCCCCCNC(=N)N)c4cc(O)cc(O)c4-c4cc3ccc4O)[C@H](O)c3ccc(c(Cl)c3)Oc3cc2cc(c3O[C@@H]2O[C@H](CO)[C@@H](O)[C@H](O)[C@H]2O[C@H]2C[C@](C)(N)[C@H](O)[C@H](C)O2)Oc2ccc(cc2Cl)[C@H]1O | 0.5 (≈ 0.317 µM) | 2 (≈ 1.27 µM) | 32 (≈ 20.3 µM) | 32 (≈ 20.3 µM) | 16 (≈ 10.2 µM) | 8 (≈ 5.08 µM) | 128 (≈ 81.2 µM) | > 128 | > 128 |
| CC(=O)NCCCCNC(=O)[C@H]1NC(=O)[C@H]2NC(=O)[C@H](NC(=O)[C@@H]3NC(=O)[C@H](CC(N)=O)NC(=O)[C@H](NC(=O)[C@H](N)CC(C)C)[C@H](O)c4ccc(c(Cl)c4)Oc4cc3cc(c4O[C@@H]3O[C@H](CO)[C@@H](O)[C@H](O)[C@H]3O[C@H]3C[C@](C)(N)[C@H](O)[C@H](C)O3)Oc3ccc(cc3Cl)[C@H]2O)c2ccc(O)c(c2)-c2c(O)cc(O)cc21 | 4 (≈ 2.58 µM) | 8 (≈ 5.17 µM) | > 128 | 128 (≈ 82.7 µM) | > 128 | 128 (≈ 82.7 µM) | 128 (≈ 82.7 µM) | > 128 | 128 (≈ 82.7 µM) |
| CC(C)C[C@@H](N)C(=O)N[C@H]1C(=O)N[C@@H](CC(N)=O)C(=O)N[C@H]2C(=O)N[C@H]3C(=O)N[C@H](C(=O)N[C@H](C(=O)O)c4cc(O)c(CNCCCCCCCCNC(=N)N)c(O)c4-c4cc3ccc4O)[C@H](O)c3ccc(c(Cl)c3)Oc3cc2cc(c3O[C@@H]2O[C@H](CO)[C@@H](O)[C@H](O)[C@H]2O[C@H]2C[C@](C)(N)[C@H](O)[C@H](C)O2)Oc2ccc(cc2Cl)[C@H]1O | 1 (≈ 0.612 µM) | 4 (≈ 2.45 µM) | 64 (≈ 39.2 µM) | 32 (≈ 19.6 µM) | 128 (≈ 78.4 µM) | 32 (≈ 19.6 µM) | 128 (≈ 78.4 µM) | > 128 | 128 (≈ 78.4 µM) |
| CN[C@H](CC(C)C)C(=O)N[C@H]1C(=O)N[C@@H](CC(N)=O)C(=O)N[C@H]2C(=O)N[C@H]3C(=O)N[C@H](C(=O)N[C@H](C(=O)O)c4cc(O)c(CNCCCCCCCCNC(=N)N)c(O)c4-c4cc3ccc4O)[C@H](O)c3ccc(c(Cl)c3)Oc3cc2cc(c3O[C@@H]2O[C@H](CO)[C@@H](O)[C@H](O)[C@H]2O[C@H]2C[C@](C)(N)[C@H](O)[C@H](C)O2)Oc2ccc(cc2Cl)[C@H]1O | 1 (≈ 0.607 µM) | 2 (≈ 1.21 µM) | 64 (≈ 38.8 µM) | 32 (≈ 19.4 µM) | 128 (≈ 77.7 µM) | 32 (≈ 19.4 µM) | 128 (≈ 77.7 µM) | > 128 | 128 (≈ 77.7 µM) |
| CC(C)C[C@@H](N)C(=O)N[C@H]1C(=O)N[C@@H](CC(N)=O)C(=O)N[C@H]2C(=O)N[C@H]3C(=O)N[C@H](C(=O)N[C@H](C(=O)NCCCCN)c4cc(O)cc(O)c4-c4cc3ccc4O)[C@H](O)c3ccc(c(Cl)c3)Oc3cc2cc(c3O[C@@H]2O[C@H](CO)[C@@H](O)[C@H](O)[C@H]2O[C@H]2C[C@](C)(N)[C@H](O)[C@H](C)O2)Oc2ccc(cc2Cl)[C@H]1O | 0.5 (≈ 0.332 µM) | 8 (≈ 5.31 µM) | 64 (≈ 42.5 µM) | 128 (≈ 85 µM) | 128 (≈ 85 µM) | 32 (≈ 21.3 µM) | > 128 | > 128 | > 128 |
| CC(C)C[C@@H](N)C(=O)N[C@H]1C(=O)N[C@@H](CC(N)=O)C(=O)N[C@H]2C(=O)N[C@H]3C(=O)N[C@H](C(=O)N[C@H](C(=O)NCCOCCOCCN)c4cc(O)cc(O)c4-c4cc3ccc4O)[C@H](O)c3ccc(c(Cl)c3)Oc3cc2cc(c3O[C@@H]2O[C@H](CO)[C@@H](O)[C@H](O)[C@H]2O[C@H]2C[C@](C)(N)[C@H](O)[C@H](C)O2)Oc2ccc(cc2Cl)[C@H]1O | 0.5 (≈ 0.319 µM) | 4 (≈ 2.56 µM) | 64 (≈ 40.9 µM) | 64 (≈ 40.9 µM) | 64 (≈ 40.9 µM) | 64 (≈ 40.9 µM) | > 128 | > 128 | > 128 |
| Cc1ccc(-c2ccc(CNC(=O)[C@H]3NC(=O)[C@H]4NC(=O)[C@H](NC(=O)[C@@H]5NC(=O)[C@H](CC(N)=O)NC(=O)[C@H](NC(=O)[C@H](N)CC(C)C)[C@H](O)c6ccc(c(Cl)c6)Oc6cc5cc(c6O[C@@H]5O[C@H](CO)[C@@H](O)[C@H](O)[C@H]5O[C@H]5C[C@](C)(N)[C@H](O)[C@H](C)O5)Oc5ccc(cc5Cl)[C@H]4O)c4ccc(O)c(c4)-c4c(O)cc(O)cc43)cc2)cc1 | 0.125 (≈ 0.0774 µM) | 0.5 (≈ 0.31 µM) | 8 (≈ 4.96 µM) | 8 (≈ 4.96 µM) | 2 (≈ 1.24 µM) | 128 (≈ 79.3 µM) | > 128 | > 128 | > 128 |
| CC(C)C[C@@H](N)C(=O)N[C@H]1C(=O)N[C@@H](CC(N)=O)C(=O)N[C@H]2C(=O)N[C@H]3C(=O)N[C@H](C(=O)N[C@H](C(=O)NCc4ccc(-c5cccc(CN)c5)cc4)c4cc(O)cc(O)c4-c4cc3ccc4O)[C@H](O)c3ccc(c(Cl)c3)Oc3cc2cc(c3O[C@@H]2O[C@H](CO)[C@@H](O)[C@H](O)[C@H]2O[C@H]2C[C@](C)(N)[C@H](O)[C@H](C)O2)Oc2ccc(cc2Cl)[C@H]1O | 0.125 (≈ 0.0767 µM) | 0.5 (≈ 0.307 µM) | 8 (≈ 4.91 µM) | 2 (≈ 1.23 µM) | 8 (≈ 4.91 µM) | 16 (≈ 9.82 µM) | > 128 | > 128 | 128 (≈ 78.6 µM) |
| CC(C)C[C@@H](N)C(=O)N[C@H]1C(=O)N[C@@H](CC(N)=O)C(=O)N[C@H]2C(=O)N[C@H]3C(=O)N[C@H](C(=O)N[C@H](C(=O)NCCCCCCCCNC(=N)N)c4cc(O)cc(O)c4-c4cc3ccc4O)[C@H](O)c3ccc(c(Cl)c3)Oc3cc2cc(c3O[C@@H]2O[C@H](CO)[C@@H](O)[C@H](O)[C@H]2O[C@H]2C[C@](C)(N)[C@H](O)[C@H](C)O2)Oc2ccc(cc2Cl)[C@H]1O | 0.5 (≈ 0.312 µM) | 2 (≈ 1.25 µM) | 16 (≈ 9.98 µM) | 32 (≈ 20 µM) | 8 (≈ 4.99 µM) | 8 (≈ 4.99 µM) | 64 (≈ 39.9 µM) | > 128 | 128 (≈ 79.8 µM) |
| CC(C)C[C@@H](N)C(=O)N[C@H]1C(=O)N[C@@H](CC(N)=O)C(=O)N[C@H]2C(=O)N[C@H]3C(=O)N[C@H](C(=O)N[C@H](C(=O)O)c4cc(O)c(CNCCCCCCCCN)c(O)c4-c4cc3ccc4O)[C@H](O)c3ccc(c(Cl)c3)Oc3cc2cc(c3O[C@@H]2O[C@H](CO)[C@@H](O)[C@H](O)[C@H]2O[C@H]2C[C@](C)(N)[C@H](O)[C@H](C)O2)Oc2ccc(cc2Cl)[C@H]1O | 4 (≈ 2.51 µM) | 4 (≈ 2.51 µM) | 128 (≈ 80.4 µM) | 128 (≈ 80.4 µM) | 64 (≈ 40.2 µM) | 128 (≈ 80.4 µM) | 128 (≈ 80.4 µM) | > 128 | 128 (≈ 80.4 µM) |
| CC(C)C[C@@H](N)C(=O)N[C@H]1C(=O)N[C@@H](CC(N)=O)C(=O)N[C@H]2C(=O)N[C@H]3C(=O)N[C@H](C(=O)N[C@H](C(=O)NCCc4ccc(-c5ccc(CN)cc5)cc4)c4cc(O)cc(O)c4-c4cc3ccc4O)[C@H](O)c3ccc(c(Cl)c3)Oc3cc2cc(c3O[C@@H]2O[C@H](CO)[C@@H](O)[C@H](O)[C@H]2O[C@H]2C[C@](C)(N)[C@H](O)[C@H](C)O2)Oc2ccc(cc2Cl)[C@H]1O | 0.25 (≈ 0.152 µM) | 1 (≈ 0.608 µM) | 4 (≈ 2.43 µM) | 8 (≈ 4.87 µM) | 8 (≈ 4.87 µM) | 8 (≈ 4.87 µM) | 128 (≈ 77.9 µM) | > 128 | > 128 |
| CC(C)C[C@@H](N)C(=O)N[C@H]1C(=O)N[C@@H](CC(N)=O)C(=O)N[C@H]2C(=O)N[C@H]3C(=O)N[C@H](C(=O)N[C@H](C(=O)NCCCCNC(=N)N)c4cc(O)cc(O)c4-c4cc3ccc4O)[C@H](O)c3ccc(c(Cl)c3)Oc3cc2cc(c3O[C@@H]2O[C@H](CO)[C@@H](O)[C@H](O)[C@H]2O[C@H]2C[C@](C)(N)[C@H](O)[C@H](C)O2)Oc2ccc(cc2Cl)[C@H]1O | 1 (≈ 0.646 µM) | 2 (≈ 1.29 µM) | 32 (≈ 20.7 µM) | 64 (≈ 41.4 µM) | 32 (≈ 20.7 µM) | 8 (≈ 5.17 µM) | 128 (≈ 82.7 µM) | > 128 | 128 (≈ 82.7 µM) |
